Experimental findings from ChEMBL document CHEMBL1201862, “PubChem BioAssay data set” (2004) are described below.

Test [1] addresses T1, Corticotropin-releasing factor receptor 2/Corticotropin-releasing factor-binding protein (Homo sapiens, UniProt P24387+Q13324).
T1 sequence (Q13324 whole entry): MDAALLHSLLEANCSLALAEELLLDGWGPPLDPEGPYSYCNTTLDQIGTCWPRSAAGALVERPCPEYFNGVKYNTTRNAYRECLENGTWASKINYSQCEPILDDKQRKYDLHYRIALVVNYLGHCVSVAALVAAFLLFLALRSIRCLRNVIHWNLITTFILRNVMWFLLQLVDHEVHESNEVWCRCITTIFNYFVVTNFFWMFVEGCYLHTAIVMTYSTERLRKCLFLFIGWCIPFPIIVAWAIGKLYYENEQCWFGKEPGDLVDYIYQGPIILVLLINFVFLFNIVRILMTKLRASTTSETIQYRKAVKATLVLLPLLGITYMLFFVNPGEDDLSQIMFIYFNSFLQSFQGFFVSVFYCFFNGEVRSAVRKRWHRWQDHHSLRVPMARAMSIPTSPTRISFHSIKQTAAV
T1 sequence (P24387 whole entry): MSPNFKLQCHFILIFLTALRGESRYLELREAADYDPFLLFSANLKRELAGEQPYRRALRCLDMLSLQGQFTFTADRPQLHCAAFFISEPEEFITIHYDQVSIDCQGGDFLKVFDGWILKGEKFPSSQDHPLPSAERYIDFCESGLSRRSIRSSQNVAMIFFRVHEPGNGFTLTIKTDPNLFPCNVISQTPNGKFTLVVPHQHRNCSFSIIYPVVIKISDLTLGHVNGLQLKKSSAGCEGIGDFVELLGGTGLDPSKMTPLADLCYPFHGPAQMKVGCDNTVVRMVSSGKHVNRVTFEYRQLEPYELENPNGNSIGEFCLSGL
Briefly: Dose Response confirmation of uHTS hits for small molecule antagonists of the CRF-binding protein and CRF-R2 receptor complex. The class given is functional. The note with it: read-out: IC50_Mean.

The target of test [2] is T1, Corticotropin-releasing factor receptor 2/Corticotropin-releasing factor-binding protein. Nature of the test: activators of CRF receptor 2 with binding protein – uHTS hits, confirmation (AID 602473). Format: functional. The note with it: read-out: EC50_Mean.
Test [3] concerns Streptococcus sp. 'group A'. Briefly: Streptococcus pyogenes SK(-)GAS viability under kanamycin – luminescence, BacTiterGlo, confirmation, counter-screen for streptokinase expression inhibitor project, dose response (AID 1900). The class given is functional, organism-based. On the technique in general: Counterscreens check selectivity or assay interference.
A further test concerns the target T2, Streptokinase A (Streptococcus pyogenes serotype M1, UniProt P10520).
T2 sequence (P10520 whole entry): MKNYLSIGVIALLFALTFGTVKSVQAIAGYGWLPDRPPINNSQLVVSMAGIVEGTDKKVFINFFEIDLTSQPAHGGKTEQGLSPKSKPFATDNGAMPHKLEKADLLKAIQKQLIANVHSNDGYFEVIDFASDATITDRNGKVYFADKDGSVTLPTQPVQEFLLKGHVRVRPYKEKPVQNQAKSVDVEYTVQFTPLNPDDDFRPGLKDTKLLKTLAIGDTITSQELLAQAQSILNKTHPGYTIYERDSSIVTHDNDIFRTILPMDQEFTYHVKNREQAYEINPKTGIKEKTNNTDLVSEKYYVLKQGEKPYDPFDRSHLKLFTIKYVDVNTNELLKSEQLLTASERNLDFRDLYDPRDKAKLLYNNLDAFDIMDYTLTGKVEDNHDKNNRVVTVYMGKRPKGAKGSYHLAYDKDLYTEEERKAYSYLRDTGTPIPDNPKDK
Briefly: viability-normalized secreted streptokinase activity reduction – plasminogen activation absorbance, OD405, dose response (AID 1914).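 Also: secreted streptokinase activity via plasminogen activation per viability signal from cell pellet.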 The class given is functional, Streptococcus pyogenes M1 GAS.

For test [4], the target named is Luciferin 4-monooxygenase (Photinus pyralis, UniProt P08659). Briefly: inhibition of purified Photinus pyralis luciferase – biochemical, luminescence, dose response (AID 1891).
Test [5] can be described thus: Luminescence Cell-Based Dose Confirmation HTS to Identify Inhibitors of Platelet Dense Granule Release. [Related pubchem assays: 1663 (Primary HTS), 1678 (Summary of Project)]. The class given is functional.
The next test relates to Streptococcus. Briefly: GAS UMAA2166 growth inhibition – luminescence, BacTiterGlo, counter-screen for streptokinase expression inhibitor project, dose response (AID 1915).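 Also: potency for reduction of bacterial viability or growth.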 Format: functional, organism-based.
A short description of test [6]: NIH-3T3 fibroblast cytotoxicity, dose response, cytotoxicity control, cell-based, fluorescence, Alamar Blue, secondary assay (AID 2327).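 Also: NIH-3T3 mouse fibroblasts cultured with fluconazole at 8 µg/mL.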 Format: functional. A general note: The colour change of resazurin is a common sign of viable cells or microbes.
Test [7] in a line: fluconazole-exposed Candida albicans growth modulators – fluorescence, retest, confirmation (AID 2467). Format: functional, cell-based.
The nature of test [8]: Luminescence Cell-Based Dose Retest to Confirm Inhibitors of Cancer Stem Cells. [Related pubchem assays (depositor defined):AID2717, AID2721]. The class given is functional. The note with it: Homo sapiens.
A further test has as its system INS1. Nature of the test: INS-1E survival protection against cytokine death – cell-based, luminescence, retest, dose response (AID 449756).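 Also: cell death triggered by IL-1 beta plus TNF-alpha plus IFN-gamma mixture; protective hits raise ATP signal compared with cytokine alone wells.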 The note with it: Rattus norvegicus. The class given is functional.
Test [9] can be described thus: Trypanosoma cruzi growth suppression in host cells – NIH3T3 host cells, beta-gal luminescence, confirmation (AID 2044).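 Also: intracellular parasites grown in NIH/3T3 mouse fibroblasts as host cells; luminescent beta-galactosidase reporter signal from transgenic T. cruzi replicating inside host cells; inhibitors lower the luminescence signal.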 Format: functional, cell-based.
Test [10] in a line: NIH3T3 cell viability loss – ATP luminescence, mouse fibroblasts, counter-screen, dose response (AID 2010).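 Also: cells exposed to compound for about 90 hours before reading.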 The class given is functional, cell-based.
The next test addresses Cytochrome P450 2D6 (Homo sapiens, UniProt P10635).
The target in a further test is T3, Cytochrome P450 1A2 (Homo sapiens, UniProt P05177).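 Also: PubChem cytochrome P450 panel assay, CYP1A2 panel member.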
T3 sequence (P05177 whole entry): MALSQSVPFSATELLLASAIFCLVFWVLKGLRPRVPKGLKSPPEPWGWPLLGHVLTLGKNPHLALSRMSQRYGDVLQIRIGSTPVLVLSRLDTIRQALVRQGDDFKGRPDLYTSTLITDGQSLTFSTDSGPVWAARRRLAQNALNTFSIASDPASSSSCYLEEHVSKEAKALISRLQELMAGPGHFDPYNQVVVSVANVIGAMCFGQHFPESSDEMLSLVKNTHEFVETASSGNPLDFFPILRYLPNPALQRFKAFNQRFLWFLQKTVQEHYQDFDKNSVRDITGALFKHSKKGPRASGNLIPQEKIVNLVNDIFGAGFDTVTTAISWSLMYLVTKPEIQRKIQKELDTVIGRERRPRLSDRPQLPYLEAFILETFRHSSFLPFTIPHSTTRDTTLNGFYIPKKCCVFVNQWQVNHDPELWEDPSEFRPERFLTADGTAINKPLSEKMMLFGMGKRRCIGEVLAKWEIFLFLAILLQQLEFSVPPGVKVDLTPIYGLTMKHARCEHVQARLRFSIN

Activity calls are given as the source filed them. Rule as the data show it, for most assays here: actives have a measured EC50 and inactives only a lower limit.

Sequence of Luciferin 4-monooxygenase (P08659 whole entry): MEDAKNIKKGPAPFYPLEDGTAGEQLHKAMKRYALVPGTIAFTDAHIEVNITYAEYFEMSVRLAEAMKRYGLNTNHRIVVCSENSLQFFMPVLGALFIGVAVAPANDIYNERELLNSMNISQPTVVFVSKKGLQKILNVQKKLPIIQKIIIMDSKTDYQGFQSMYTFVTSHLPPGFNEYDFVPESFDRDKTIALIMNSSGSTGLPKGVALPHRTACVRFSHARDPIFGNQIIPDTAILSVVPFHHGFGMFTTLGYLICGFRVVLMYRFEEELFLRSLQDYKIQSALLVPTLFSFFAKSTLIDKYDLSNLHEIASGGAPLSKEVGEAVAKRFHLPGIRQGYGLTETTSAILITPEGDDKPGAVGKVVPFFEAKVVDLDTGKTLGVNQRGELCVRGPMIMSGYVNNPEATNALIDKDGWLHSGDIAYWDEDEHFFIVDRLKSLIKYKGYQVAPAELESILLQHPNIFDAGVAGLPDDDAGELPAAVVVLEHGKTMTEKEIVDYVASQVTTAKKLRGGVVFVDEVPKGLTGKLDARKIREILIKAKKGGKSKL
Sequence of Cytochrome P450 2D6 (P10635 whole entry): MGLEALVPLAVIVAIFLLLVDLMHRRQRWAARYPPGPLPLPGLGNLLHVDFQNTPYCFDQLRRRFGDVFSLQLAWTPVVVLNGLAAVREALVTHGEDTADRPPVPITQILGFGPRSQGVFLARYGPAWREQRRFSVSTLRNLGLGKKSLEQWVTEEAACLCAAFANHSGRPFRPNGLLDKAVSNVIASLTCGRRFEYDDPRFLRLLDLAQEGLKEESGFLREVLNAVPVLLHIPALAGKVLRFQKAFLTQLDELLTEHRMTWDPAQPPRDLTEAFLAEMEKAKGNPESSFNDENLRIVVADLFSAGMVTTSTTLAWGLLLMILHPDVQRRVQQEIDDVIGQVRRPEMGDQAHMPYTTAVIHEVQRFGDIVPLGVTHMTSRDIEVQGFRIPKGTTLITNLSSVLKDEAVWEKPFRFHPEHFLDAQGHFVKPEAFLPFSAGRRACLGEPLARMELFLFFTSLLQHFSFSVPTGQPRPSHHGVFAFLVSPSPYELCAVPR

As to `CCCn1cc(S(=O)(=O)c2ccccc2)c(=O)c2cc(OCC)ccc21`, the IC50 in test [1] was > 47.1 µM (inactive). The EC50 in [2] was > 53 µM (inactive).
The like results for `CCn1c(SCC(=O)NC2CC2)nnc1-c1ccncc1` were, in that order, > 47.1 µM (inactive) and > 53 µM (inactive).
In the case of `CC(NCC(=O)Nc1ccccc1C(=O)NC1CC1)c1cccc(Cl)c1` (stereo not given), the IC50 in test [1] is > 47.1 µM (inactive). Besides, in test [2], the EC50 is > 53 µM (inactive).
For the compound `O=C(CSc1nc[nH]n1)Nc1cc(S(=O)(=O)N2CCCC2)ccc1Cl`, the IC50 in [1] was > 47.1 µM (inactive). Moreover, the EC50 in test [2] is > 53 µM (inactive).
Consider `O=[N+]([O-])c1ccc(N=Nc2ccc(O)cc2O)cc1`, for which the EC50 is 2.44 µM (active) in test [3]; > 50 µM (not active) on Streptokinase A; 1.05 µM (active) in test [4]; 3 µM (active) in test [5]; 24.6 µM (active) with Streptococcus.
For `O=C(CCn1nnc2ccccc21)N1CCN(c2ccccc2)CC1`, the IC50 in test [1] is > 47.1 µM (inactive). Moreover, the EC50 in [2] is > 53 µM (inactive).
Turning to `COc1ccccc1NC(=O)Cc1c(F)cccc1Cl`, the EC50 was > 112 µM (not active) in [4] and 70.8 µM (active) in test [5].
For the compound `COc1cccc(NC(=S)C(C#N)=C2N(C)c3ccccc3N2C)c1`, in test [1], the IC50 is > 47.1 µM (inactive). For the same compound, the EC50 in [2] is > 53 µM (inactive).
One may read the AC50 as the midpoint of the concentration-response curve, whichever way the signal moves. `O=C(NNc1ccc(Cl)cc1)c1cccs1`: the values for the EC50 in [6] and in test [7] were 2.56 µM (inconclusive) and > 38 µM (not active), respectively. Further, in test [8], the AC50 is 1.14 µM (active).
Turning to `O=C(CN1CCN(c2ccccc2F)CC1)Nc1nnc(C(F)(F)F)s1`, the results for the EC50 in test [6] and in [7] were > 150 µM (inactive) and 0.366 µM (active), respectively.
As to `CCn1c(=O)c(C(=O)Nc2ccccn2)c(O)c2ccccc21`, in the test with INS1, the AC50 was 30.2 µM (active).
In the case of `Cc1c(NC2=C(Cl)C(=O)N(c3ccccc3Cl)C2=O)c(=O)n(-c2ccccc2)n1C`, the IC50 in test [1] was > 47.1 µM (inactive). Besides, in test [2], the EC50 was > 53 µM (inactive).
Consider `COc1cccc(CN(C)C(=O)c2cccc(S(=O)(=O)N3CCN(c4ccccc4)CC3)c2)c1OC`, for which the IC50 in test [1] was > 47.1 µM (inactive). Moreover, in [2], the EC50 was > 53 µM (inactive).
As to `O=C(c1ccco1)N1CCN(C(=O)c2ccc(COc3ccc(F)cc3)o2)CC1`, the EC50 in test [4] and in [5] was > 112 µM (not active) in each case.
Turning to `COC(=O)COc1ccc(S(=O)(=O)NCc2cccnc2)cc1C`, the EC50 is > 112 µM (not active) in test [4] and 34.3 µM (active) in [5].
Take `CC(c1ccccc1)N1CCn2c(nc3cc(NS(C)(=O)=O)ccc32)C1` (stereo not given): the EC50 in test [6] was > 160 µM (inconclusive); in [7], > 38 µM (not active).
As for `Cc1ccc2nc(-c3cccc(-c4cccc(Cl)c4)c3)c(NCc3ccccc3)n2c1`, the AC50 in [8] was 4.01 µM (active); in the test with INS1, 7.9 µM (active).
Turning to `COc1ccc(-c2cc(C)no2)cc1S(=O)(=O)N(C)c1cccc(C)c1`, the values for the EC50 in [6] and in test [7] were > 160 µM (inactive) and > 38 µM (not active), respectively.
As for `CC[C@H](C)Cc1cn([C@@H](CCCCNC(=O)OC(C)(C)C)C(=O)NCCCCCCCCCCC(=O)N2CCN(C(=O)OC(C)(C)C)CC2)nn1`, the AC50 with INS1 was 7.02 µM (active).
Still for that read-out and setting: then `CC(C)C[C@H]1CN=C(Nc2ccccc2)N1CCC(C)c1ccccc1` (stereo not given in full), with 9.62 µM (active).
Regarding `O=[N+]([O-])c1ccc(-n2cnc3ccccc32)c([N+](=O)[O-])c1`, the values for the EC50 in [9] and in test [10] were 0.485 µM (active) and > 60 µM (inconclusive), respectively. For the same compound, the AC50 in the test with INS1 was 14.3 µM (active).
As for `COc1cccc(-c2nc3ccc(O)cc3c(=O)o2)c1`, the EC50 in test [4] was 5.39 µM (active); in test [5], 9.19 µM (active).
Turning to `COc1ccc(Br)cc1/C=N/n1c(C)nnc1C`, the EC50 in test [4] and in test [5] was > 112 µM (not active) throughout.
For `Cc1ccc(CNC(=O)C2CCCN(c3nn4c(=O)cc(C)nc4s3)C2)cc1` (stereo not given), the EC50 in [4] and in test [5] was > 112 µM (not active) in each case.
In the case of `CCOC(=O)C1CCN(C(=O)Cn2nc(C)n3c(cc4cc(F)ccc43)c2=O)CC1`, the EC50 in test [4] was > 112 µM (not active); in test [5], 15.8 µM (active).
Consider `Cc1ccccc1-n1c(CSC(=N)N)nc2ccccc2c1=O`, for which the IC50 in test [1] is > 47.1 µM (inactive). The EC50 in [2] was > 53 µM (inactive).
For the compound `CC1(C)CC(N2CCN(Cc3ccccc3)CC2)=CC(=[N+]2CCCCC2)C1`, the EC50 in test [6] is > 160 µM (inactive); in [7], 2.72 µM (active); in test [9], 0.289 µM (active); in test [10], > 60 µM (not active). In addition, the AC50 with INS1 is 2.16 µM (active).
Turning to `O=Nc1c(O)n(Cc2ccc(Cl)c(Cl)c2)c2ccccc12`, the values for the EC50 in test [6] and in test [7] were 76.8 µM (active) and 3.73 µM (active), respectively. Moreover, the values for the AC50 (in test [8]; at Cytochrome P450 2D6; on Cytochrome P450 1A2) were 5.78 µM (active), 28.2 µM (inconclusive) and 20 µM (inconclusive), respectively.
For the compound `Cc1ccc(N2CCN(C(=O)CN3C(=O)c4ccccc4C3=O)CC2)cc1`, the IC50 in [1] was > 47.1 µM (inactive). Further, the EC50 in test [2] is > 53 µM (inactive).
For the compound `CSc1ccccc1C(=O)Nc1ncc(C)s1`, the results for the EC50 in test [4] and in test [5] were > 112 µM (not active) and 65.8 µM (active), respectively.
As to `O=C(CC1(O)C(=O)Nc2ccccc21)c1ccccc1` (stereo not given), the EC50 in test [4] and in test [5] was > 112 µM (not active) in each case.
`Clc1nc2ncnc-2c[nH]1`: the EC50 in test [4] and in test [5] was > 112 µM (not active) each time.
For the compound `O=C(Nc1cccc(O)c1)C(=O)Nc1ccccn1`, the EC50 in [4] is 7.77 µM (active); in test [5] it was 1.82 µM (active).
With `C#CCN(C(=O)c1cc(COc2cccc(C(F)(F)F)c2)on1)C1CCCCC1`, the AC50 in the test with INS1 is > 120 µM (inactive).
